Assay results taken from US20110104159A1, “COMPOSITIONS AND METHODS FOR TREATING, CONTROLLING, REDUCING, AMELIORATING, OR PREVENTING ALLERGY” (priority 2006, published 2011).
Where “and” joins values, the source holds several entries; their conditions need not be identical. Identical values can stand only once.

Experiments:
[1] = system: monkey trabecular meshwork cells; settings: monkey trabecular meshwork cells [28]; cited from earlier work
CXCR4 receptor = CXCR4 receptor surface expression in human eosinophils (FACS), transactivation marker; type: cell-based; settings: 24 h
Method: (§1) FACS was performed to measure cell surface expression of annexin I and CXCR4 as indicators of glucocorticoid-mediated transactivation. Human eosinophils were double-stained with a red dye-conjugated secondary antibody to trace changes in the expression of CXCR4 or I, and a green dye-conjugated annexin V to exclude apoptotic cells from the analysis. The cells were counted and transferred to a 24-well plate (10^6 cells/well) and serum-starved (0.1% FBS) for 24 h.
(§2) At the end of the incubation, the cells were harvested and each sample was divided into two tubes to run parallel tests for annexin I and CXCR4 surface expression. After rinsing all samples with a HBSS solution containing 1% BSA, the cells were incubated for 45 min on a shaker with anti-annexin I or anti-CXCR4 antibodies (1:200) on ice; the negative control was incubated with an isotype-specific control antibody.
(§3) The cells were then washed twice with HBSS/BSA buffer before exposure to the Alexa Fluor® 568-conjugated secondary antibody. The excess of unbound antibody was washed away, and all samples were incubated for 15 min in the presence of annexin V-Fluos. […] Electronic gates were set on annexin V-negative cells and CXCR4 or annexin I-positive cells. Data from 10,000 cells/sample were analyzed using dedicated software (Becton, Dickinson and Company). The % of CXCR4 or annexin I positive cells was calculated.

[2] = system: peripheral human blood eosinophils; experiment: Spontaneous eosinophil apoptosis (annexin V/PI flow cytometry)
Method: To assess glucocorticoid-induced apoptosis, cells were double-stained with annexin V-Fluos and propidium iodide (PI). Annexin V-Fluos was used according to the manufacturer's instructions.
The suspension was incubated at room temperature for 10 min and analyzed in the BD FACS Canto II flow cytometry system (Becton, Dickinson and Company, New Jersey, USA). Eosinophils and EoL-1 cells were gated on the basis of their forward and side light scatter, with cell debris excluded from analysis. Apoptotic cells were defined as annexin V^+/PI^− cells. A two-way dot plot was prepared to verify the percentage of apoptotic cells. Annexin V^−/PI^− cells were used as control and annexin V^+/PI^+ cells were considered necrotic.
All data are expressed as mean±S.E.M. for the number of experiments indicated. Statistical comparisons were made by ANOVA and post-hoc Newman-Keuls test with differences of P<0.05 considered significant.

annexin I = experiment: Annexin I surface expression in human eosinophils (FACS), transactivation marker; type: cell-based; settings: 10 000 nM
Method: as §1, §2, §3

[3] = system: primary human conjunctival epithelial cells (HConEpiC); experiment: IL-4 and TNF-α-induced cytokine release in HConEpiC (Luminex); type: cell-based; settings: 24 h
Method: Primary human conjunctival epithelial cells (HConEpiC) were seeded in two 24-well plates in EpiLife medium+1% Human Corneal Growth Supplement (HCGS; contains bovine pituitary extract, bovine insulin, hydrocortisone, bovine transferrin and mouse epidermal growth factor) at 2×10^4 cells/well. When the cells were confluent (4-5 days after seeding), they were incubated in EpiLife GF medium without glucocorticoids (EpiLife basic medium supplemented with 50 μg/ml bovine pituitary extract, 5 μg/ml bovine insulin and 5 ng/ml mouse epidermal growth factor) for 18 h. […] Culture medium was collected. Cytokine analysis was performed on the culture medium using 2 separate cytokine/chemokine Luminex kits (Kit 1: G-CSF, GM-CSF, IL-6, IL-8, IP-10, MCP-1, RANTES; Kit 2: eotaxin-3, CTACK). ICAM-1 expression was determined in cell lysates using a Luminex kit.
Median fluorescence intensity (MFI) was used to obtain the concentration of each cytokine and ICAM-1 in pg/ml based on the standard curve of each cytokine assayed by Luminex using the StatLIA software. ICAM-1 expression was expressed as pg/mg protein. All data were expressed as mean±SEM. Statistical analysis was performed using a two-way ANOVA-Contrast test with Factor 1 being drug and Factor 2 being dose (JMP 8 software, SAS Institute, Cary, N.C.). P<0.05 was considered statistically significant. Data were analyzed either directly or after Box-Cox transformations (9, 10).

[4] = system: murine thymocyte line S49; settings: murine thymocyte line S49 [26]; cited from earlier work
[5] = system: rabbit paracentesis model; experiment: Clinical evaluation by slit lamp (clinical score), rabbit paracentesis model; type: in vivo; parameters: key to Clinical Score −180 min / Clinical Score −5 min / Clinical Score +115 min: 0: normal; 1: discrete dilatation of iris and conjunctival vessels; 2: moderate dilatation of iris and conjunctival vessels; 3: intense iridal hyperemia with flare in the anterior chamber; 4: intense iridal hyperemia with flare in the anterior chamber and presence of fibrinous exudates; settings: for Clinical Score −5 min: 5 min before first paracentesis; for Clinical Score −5 min / Clinical Score +115 min / Clinical Score −180 min: individual eye, scale 0-4; for Clinical Score +115 min: 5 min before second paracentesis; for Clinical Score −180 min: basal
[6] = system: cultured human ocular cells; settings: cultured human ocular cells [13, 29]; cited from earlier work

In the case of `Cc1ccc2c(NC[C@](O)(CC(C)(C)c3cc(F)cc4c3OCC4)C(F)(F)F)cccc2n1` [BOL-303242-X, (R)-1,1,1-Trifluoro-4-(5-fluoro-2,3-dihydrobenzofuran-7-yl)-4-methyl-2-{[(2-methyl-5-quinolyl)amino]methyl}pentan-2-ol], the “Agonism in increasing myocilin expression” value [1] is listed as “partial glucocorticoid receptor agonist”, the “CXCR4 receptor surface expression” value (CXCR4 receptor; 10 000 nM, significantly lower than 1000 nM dexamethasone) is listed as “partially increased this receptor on the cell surface” and the “CXCR4 receptor surface expression” value (CXCR4 receptor; up to 5000 nM, vs vehicle-treated or control eosinophils) is listed as “did not change CXCR4 receptor expression”. The “Eosinophil apoptosis after 24 h exposure” value ([2]; 24 h, 0.1% FBS, 100 and 1000 nM, data not shown) was “lower but significant apoptosis”, the “Percentage of annexin-V+/PI+ (necrotic) peripheral blood eosinophils” value ([2]; 48 h, 5000 nM, mean±SEM, n=12, p>0.05 vs without compound (34±10%)) was 25±9% and the “Efficacy, enhancement of spontaneous eosinophil apoptosis” value ([2]; 48 h, 0.1% FBS, no GM-CSF/IL-5, 1-5000 nM) was 90%. For the same compound, the EC50 ([2]; read-out: EC50, enhancement of spontaneous eosinophil apoptosis, 48 h, 0.1% FBS, no GM-CSF/IL-5, 1-5000 nM) was 456 nM, the “Induction of annexin I expression on the eosinophil cell surface” value (annexin I) was “partially effective only at the highest concentration” and the “Eotaxin-3 level induced by IL-4 plus TNF-α” value ([3]; 100 nM) was “significant elevation of eotaxin-3”. The “Eotaxin-3 level induced by IL-4 plus TNF-α” value ([3]; 10, 30, 300 and 1000 nM) was “no effect”, the “IL-8 level induced by IL-4 plus TNF-α” value ([3]; 10-1000 nM) was “no effect” and the “IP-10 level induced by IL-4 plus TNF-α” value ([3]; 30, 100, 300 and 1000 nM) was “significantly inhibited”. The “IL-6 level induced by IL-4 plus TNF-α” value ([3]; 300 and 1000 nM) was “significantly reduced”, the “CTACK level induced by IL-4 plus TNF-α” value ([3]; all doses 10-1000 nM) was “significant reduction” and the “G-CSF level induced by IL-4 plus TNF-α” value ([3]; all doses 10-1000 nM) was “significantly elevated”. For the same compound, the “GM-CSF level induced by IL-4 plus TNF-α” value ([3]; all doses 10-1000 nM) was “significant reduction”, the “MCP-1 level induced by IL-4 plus TNF-α” value ([3]; all doses 10-1000 nM) was “significant reduction” and the “RANTES level induced by IL-4 plus TNF-α” value ([3]; all doses 10-1000 nM) was “significant reduction”. For the same compound, the “Induction of apoptosis in thymocytes” value [4] was “does not induce apoptosis”, the “Clinical Score −5 min” value ([5]; 0.1% topical) was 0 and the “Clinical Score +115 min” value ([5]; 0.1% topical, listed as BOL) was 2 (6×) and 3 (2×). The “Percentage of eyes with clinical score 2” value ([5]; 0.1% topical, +115 min, 8 eyes) was 75%, the “Percentage of eyes with clinical score 3” value ([5]; 0.1% topical, +115 min, 8 eyes) was 25% and the “Clinical Score −180 min” value ([5]; 0.1% topical) was 0. For the same compound, the “Percentage of eyes with clinical score 0” value ([5]; 0.1% topical, −5 min, 8 eyes) was 100%, the “Percentage of eyes with clinical score 0” value ([5]; 0.1% topical, −180 min, 8 eyes) was 100% and the “Clinical Score −5 min” value ([5]; 0.5% topical) was 0. For the same compound, the “Clinical Score +115 min” value ([5]; 0.5% topical, listed as BOL) was 2 (5×) and 1 (3×), the “Percentage of eyes with clinical score 1” value ([5]; 0.5% topical, +115 min, 8 eyes) was 37.5% and the “Percentage of eyes with clinical score 2” value ([5]; 0.5% topical, +115 min, 8 eyes) was 62.5%. The “Clinical Score −180 min” value ([5]; 0.5% topical) was 0, the “Percentage of eyes with clinical score 0” value ([5]; 0.5% topical, −5 min, 8 eyes) was 100% and the “Percentage of eyes with clinical score 0” value ([5]; 0.5% topical, −180 min, 8 eyes) was 100%. The “Clinical Score −5 min” value ([5]; 1% topical) was 0, the “Clinical Score +115 min” value ([5]; 1% topical) was 2 and the “Percentage of eyes with clinical score 2” value ([5]; 1% topical, +115 min, 8 eyes) was 100%. The “Clinical Score −180 min” value ([5]; 1% topical) was 0, the “Percentage of eyes with clinical score 0” value ([5]; 1% topical, −5 min, 8 eyes) was 100% and the “Percentage of eyes with clinical score 0” value ([5]; 1% topical, −180 min, 8 eyes) was 100%. The “Blocking inflammatory cytokine release” value [6] was “equally potent in blocking inflammatory cytokine release”.
